Patent publication US20250151724A1, “Liquid Soil Treatments Containing Choline” (Harrell's, LLC, priority 2023, published 2025)

Tested on: creeping bentgrass
Experiment: Experiment No. 1: growth chamber pot trial, foliar GB and choline under heat and mild drought stress
Type: in vivo
Details: for Root Viability: TTC method
Description: A growth chamber pot trial was conducted as follows. […] The choline used in this study was supplied in the form of choline chloride from Sigma-Aldrich, Inc. (St. Louis, MO). […] These conditions simulated summer putting green stress. The treatments were as follows: • 1. […] GB at 0.5 oz./1,000 ft^2 every 14 days. • 3. GB at 1.0 oz./1,000 ft^2 every 14 days. • 4. […] The rate and source of fertilization for treatments #2-7 was the same as treatment #1 (fertilized control), so all seven treatments received identical fertility input. […] The term “low rate” is used in this description of Experiment No. 1 to refer to 0.5 oz./1,000 ft^2 treatments, while the term “high rate” is used to refer to 1.0 oz./1,000 ft^2 treatments. […] Photochemical efficiency (PE). Photochemical Efficiency was measured with a chlorophyll fluorometer (OS-50II, Opti-Sciences, Inc., Hudson, NH) biweekly based on the Fv/Fm, which is the ratio of variable chlorophyll fluorescence (Fv) to maximum chlorophyll fluorescence (Fm). […] Chlorophyll content. After clipping yields were weighed, leaf tissues were ground into powder, and chlorophyll was extracted in pure acetone content for 72 hours, and the absorbance was measured using a spectrophotometer. • e. Leaf carotenoids were extracted in the same sample as for chlorophyll content and carotenoids were measured using a spectrophotometer (Zhang et al., 2005). • f. Leaf proline content. […] After centrifuging, the supernatant was collected, and proline was analyzed according to Wu et al., 2017. • g. Root viability. […] Root growth characteristics. At the end of trial, roots from each pot were washed and cleaned. Roots were scanned using WinRHIZOTM technology (Regent Instruments Inc., Quebec, Canada), and root length, root surface area, root diameter, and root volume were calculated. (Zhang et al., 2017). • i. Root biomass of each pot was determined at the end of the trial. Roots were dried at 65° C. for 72 hours before being weighed.

## C[N+](C)(C)CC(=O)[O-] [GB, Glycine betaine, reference compound]
0.5 oz/1000 ft^2, Total
  Clippings dry wt: 0.686bc g/pot
0.5 oz/1000 ft^2, day 0
  Carotenoids: 1.31a mg/g FW
  Chlorophyll: 3.43a mg/g FW
  Leaf color (1-9, 9 = dark green): 7.5a
  PE (Fv/Fm): 0.777a
  Proline: 19.0a mg/g FW
0.5 oz/1000 ft^2, day 14
  Carotenoids: 1.31a mg/g FW
  Chlorophyll: 3.44a mg/g FW
  Clippings dry wt: 0.159ab g/pot
  Leaf color (1-9, 9 = dark green): 7.1bc
  PE (Fv/Fm): 0.744ab
  Proline: 21.2bc mg/g FW
0.5 oz/1000 ft^2, day 28
  Carotenoids: 1.00ab mg/g FW
  Chlorophyll: 2.89abc mg/g FW
  Clippings dry wt: 0.143b g/pot
  Leaf color (1-9, 9 = dark green): 6.3b
  PE (Fv/Fm): 0.676ab
  Proline: 35.1a mg/g FW
0.5 oz/1000 ft^2, day 42
  Carotenoids: 1.13a mg/g FW
  Chlorophyll: 2.80ab mg/g FW
  Clippings dry wt: 0.152a g/pot
  Leaf color (1-9, 9 = dark green): 6.9ab
  PE (Fv/Fm): 0.668ab
  Proline: 34.9bc mg/g FW
0.5 oz/1000 ft^2, day 56
  Carotenoids: 1.08ab mg/g FW
  Chlorophyll: 2.63abc mg/g FW
  Clippings dry wt: 0.233ab g/pot
  Leaf color (1-9, 9 = dark green): 6.3bc
  PE (Fv/Fm): 0.646ab
  Proline: 62.9ab mg/g FW
0.5 oz/1000 ft^2, end of trial
  Root Biomass: 1.34b g/pot
  Root Diameter: 0.189ab mm
  Root Length: 33.1b mm/cm^3
  Root Volume: 9.6a dm^3/cm^3
  Root Viability: 0.877abcd A490/g FW
1.0 oz/1000 ft^2, Total
  Clippings dry wt: 0.876a g/pot
1.0 oz/1000 ft^2, day 0
  Carotenoids: 1.30a mg/g FW
  Chlorophyll: 3.42a mg/g FW
  Leaf color (1-9, 9 = dark green): 7.5a
  PE (Fv/Fm): 0.743a
  Proline: 18.6a mg/g FW
1.0 oz/1000 ft^2, day 14
  Carotenoids: 1.31a mg/g FW
  Chlorophyll: 3.43a mg/g FW
  Clippings dry wt: 0.211a g/pot
  Leaf color (1-9, 9 = dark green): 7.3abc
  PE (Fv/Fm): 0.765a
  Proline: 21.6bc mg/g FW
1.0 oz/1000 ft^2, day 28
  Carotenoids: 1.02b mg/g FW
  Chlorophyll: 2.71bc mg/g FW
  Clippings dry wt: 0.225a g/pot
  Leaf color (1-9, 9 = dark green): 7.0a
  PE (Fv/Fm): 0.715ab
  Proline: 25.8b mg/g FW
1.0 oz/1000 ft^2, day 42
  Carotenoids: 0.99ab mg/g FW
  Chlorophyll: 2.47ab mg/g FW
  Clippings dry wt: 0.189a g/pot
  Leaf color (1-9, 9 = dark green): 6.5b
  PE (Fv/Fm): 0.673ab
  Proline: 38.9abc mg/g FW
1.0 oz/1000 ft^2, day 56
  Carotenoids: 0.96ab mg/g FW
  Chlorophyll: 2.55bc mg/g FW
  Clippings dry wt: 0.252a g/pot
  Leaf color (1-9, 9 = dark green): 6.4abc
  PE (Fv/Fm): 0.651a
  Proline: 68.5a mg/g FW
1 oz/1000 ft^2, end of trial
  Root Biomass: 1.64ab g/pot
  Root Diameter: 0.174b mm
  Root Length: 40.3ab mm/cm^3
  Root Volume: 9.7a dm^3/cm^3
  Root Viability: 1.076ab A490/g FW
